One compound from US20130288897A1, “SYNERGISTIC PESTICIDAL COMPOSITIONS” (Dow AgroSciences LLC, priority 2012, published 2013) can be followed below.

Assay type in all cases: in vivo
The test system of assay [1] is cotton aphid (CA) Aphis gossypii. Kind of assay: Cotton aphid track-sprayer test on cotton: Compound A or imidacloprid with Durango (glyphosate) or Durango Blank and AMS (Example XVI). The settings on record: average of 5 reps. On the procedure: Glyphosate resistant cotton plants (Gossypium hirsutum, cv ‘DP493’) were trimmed to 1 true leaf and infested with mixed stages of cotton aphid (CA) Aphis gossypii 24 h prior to application. Mixed developmental stage CA were infested onto the upper surface of each treated leaf by transferring infested foliage from an insectary colony. Each plant was infested with approximately equal numbers of CA based on visual estimation of aphid density on the infested material. Infested plants were held in the growth chamber (L:D 16:8 and 25° C.). Glyphosate (Durango®, Dow AgroSciences, LLC, Indianapolis, Ind.) was mixed with water at a rate equivalent to 15 ml/L (1.2 qt/Ac). […] A glyphosate free formulation of Durango® was prepared using these same mixing instructions. […] High rate Compound A concentrations were created by diluting Compound A technical material with acetone to achieve a 10 ppm solution. […] […] […] Nozzle height above the canopy was held constant at ca. 30 cm. Plants were evaluated after 3 days from the time of infestation by counting all live cotton aphids on each plant.
[…] Percent control for all treatments was calculated using the rep average for the untreated plants.

For assay [2] the test system is unchanged. Kind of assay: Cotton aphid track-sprayer test on cotton: Compound A or imidacloprid with glufosinate (Liberty) and AMS (Example XVII). The conditions noted are these: AMS 18 mg/ml, no insecticide, no glufosinate. On the procedure: (§1) Glyphosate resistant cotton plants (Gossypium hirsutum, cv ‘DP493’) were trimmed to 1 true leaf and infested with mixed stages of cotton aphid (CA) Aphis gossypii 24 h prior to application. Mixed developmental stage CA were infested onto the upper surface of each treated leaf by transferring infested foliage from an insectary colony. Each plant was infested with approximately equal numbers of CA based on visual estimation of aphid density on the infested material. Infested plants were held in the growth chamber (L:D 16:8 and 25° C.). Glufosinate (Liberty®, Bayer CropScience, Monheim am Rhein, Germany) was mixed with water at a rate equivalent to 5 ml/L (0.4 qt/Ac). […] High rate Compound A concentrations were created by diluting Compound A technical material with acetone to achieve a 10 ppm solution. […] […] […] Nozzle height above the canopy was held constant at ca. 30 cm. Plants were evaluated after 3 days from the time of infestation by counting all live cotton aphids on each plant.
TABLE 6 contains the calculated Colby values for combinations of treatments as well as the outcome of statistical evaluations between predicted (Colby) and actual measured values. These T-test statistics were only calculated for the 0.2 and 0.05 g/Ha rates. […] These same trends were apparent when Compound A was applied with both glufosinate and AMS.

For assay [3] the test system is unchanged. Kind of assay: Cotton aphid track-sprayer test on cotton: Compound A with glufosinate (Liberty) and AMS, rates 0.4, 0.1 and 0.025 g/Ha (Example XVIII). The conditions noted are these: AMS 18 g/L, no insecticide, no Lib. On the procedure:
as §1, with “24 hours” for “24 h”, “a 20” for “a 10”

For `N.N.O=S(=O)(O)O` [AMS, ammonium sulfate], the “% control Ave” value was −7.0% in assay [1] (AMS 18 g/L alone, 0 g insecticide/Ha, block of Durango treatments); 13.3% in assay [1] (AMS 18 g/L alone, no insecticide, block of Durango Blank treatments); 26.5% in assay [1] (AMS 18 g/L with Durango Blank 0.015 ml/ml, no insecticide). For the same compound, in assay [2], the “% control AVE” value was 4.5%. Besides, the “% Control (Negatives to zero) Ave” value in assay [3] is on record as 13.2%.
